In ChEMBL document CHEMBL4130507, “Therapeutic investigations of novel indoxyl-based indolines: A drug target validation and Structure-Activity Relationship of angiotensin-converting enzyme inhibitors with cardiovascular regulation and thrombolytic potential” (Eur J Med Chem, 2017):
Activity calls are given as the source filed them. The calls are words filed in the database; no cut-off is given here.

What was measured:
[1] = target: T1, Angiotensin-converting enzyme (Homo sapiens, UniProt P12821); test: Inhibition of ACE (unknown origin) using Hippuryl-L-Histidyl-L-Leucine as substrate after 60 mins by colorimetric method
T1 sequence (P12821 whole entry): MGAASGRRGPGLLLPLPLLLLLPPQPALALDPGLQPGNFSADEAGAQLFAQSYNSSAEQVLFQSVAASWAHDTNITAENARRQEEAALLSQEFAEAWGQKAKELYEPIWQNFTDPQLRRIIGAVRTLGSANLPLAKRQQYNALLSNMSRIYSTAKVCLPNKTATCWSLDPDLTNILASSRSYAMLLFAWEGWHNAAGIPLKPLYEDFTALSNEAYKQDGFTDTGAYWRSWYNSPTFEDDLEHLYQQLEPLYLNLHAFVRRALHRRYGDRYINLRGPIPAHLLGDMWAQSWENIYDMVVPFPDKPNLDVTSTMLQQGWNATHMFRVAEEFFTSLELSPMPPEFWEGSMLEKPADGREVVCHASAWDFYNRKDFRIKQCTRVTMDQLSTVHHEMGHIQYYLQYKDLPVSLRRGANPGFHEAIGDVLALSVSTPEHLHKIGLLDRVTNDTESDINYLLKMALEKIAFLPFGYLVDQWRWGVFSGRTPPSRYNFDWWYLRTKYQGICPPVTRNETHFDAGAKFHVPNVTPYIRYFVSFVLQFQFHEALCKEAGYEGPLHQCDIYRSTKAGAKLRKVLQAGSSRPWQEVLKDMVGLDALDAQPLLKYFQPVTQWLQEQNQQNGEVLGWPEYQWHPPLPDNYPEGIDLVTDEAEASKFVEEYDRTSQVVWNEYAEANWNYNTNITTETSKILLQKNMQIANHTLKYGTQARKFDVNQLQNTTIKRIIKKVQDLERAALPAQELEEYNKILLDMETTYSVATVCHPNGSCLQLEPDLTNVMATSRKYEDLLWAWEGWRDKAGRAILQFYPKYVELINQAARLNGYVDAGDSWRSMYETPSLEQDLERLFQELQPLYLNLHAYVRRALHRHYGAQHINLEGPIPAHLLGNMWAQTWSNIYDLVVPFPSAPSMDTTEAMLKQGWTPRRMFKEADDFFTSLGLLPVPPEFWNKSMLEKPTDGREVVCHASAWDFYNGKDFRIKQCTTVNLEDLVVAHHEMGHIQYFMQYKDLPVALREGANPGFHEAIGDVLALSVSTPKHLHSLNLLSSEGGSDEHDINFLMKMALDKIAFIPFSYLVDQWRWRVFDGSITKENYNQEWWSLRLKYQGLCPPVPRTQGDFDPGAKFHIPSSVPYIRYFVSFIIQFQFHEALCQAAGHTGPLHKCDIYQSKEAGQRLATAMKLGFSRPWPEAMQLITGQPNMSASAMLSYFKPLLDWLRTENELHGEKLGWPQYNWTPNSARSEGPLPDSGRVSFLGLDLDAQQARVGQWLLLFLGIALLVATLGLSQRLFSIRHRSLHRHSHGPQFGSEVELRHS

[2] = target: T1, Angiotensin-converting enzyme; test: Inhibition of ACE (unknown origin) at IC50 using Hippuryl-L-Histidyl-L-Leucine as substrate after 60 mins by colorimetric method relative to control
[3] = Antioxidant activity assessed as H2O2 free radical scavenging activity at IC50 after 1 hr by UV spectrophotometric analysis relative to control; format: functional
[4] = Antioxidant activity assessed as H2O2 free radical scavenging activity after 1 hr by UV spectrophotometric analysis; format: functional
MCF7 [5] = test: Cytotoxicity against human MCF7 cells at IC50 after 24 to 72 hrs by MTT assay relative to control; format: functional
DNA = test: Inhibition of H2O2-induced Escherichia coli DH5alpha genomic DNA damage at 25 to 250 uL after 24 hrs by ethidium-bromide staining-based agarose gel electrophoresis; format: nucleic-acid assay; settings: Escherichia coli DH5[alpha]
Blood [6] = test: Thrombolytic activity in human blood after 60 mins; format: functional, tissue-based
Blood [7] = test: Thrombolytic activity in human blood after 2 hrs relative to control; format: functional
MCF7 [8] = test: Cytotoxicity against human MCF7 cells after 24 to 72 hrs by MTT assay; format: functional, cell-based
MCF10 = test: Cytotoxicity against human MCF10 cells at 10 to 150 ug/ml after 24 to 72 hrs by MTT assay; format: cell-based
Blood [9] = test: Thrombolytic activity in human blood after 2 hrs; format: functional, tissue-based
Erythrocyte = test: Induction of membrane stabilization in human RBC assessed as reduction in hemolysis relative to control; format: functional; set-up: scale not given: the % may be the effect or the level left

Row | SMILES | IC50 [1] [nM] | inhibition [2] [%] | Activity [3] [%] | Activity [4] | Activity (MCF7 [5]) [%] | inhibition (DNA) | Activity (Blood [6]) | Activity (Blood [7]) [%] | IC50 (MCF7 [8]) [nM] | Activity (MCF10) | IC50 (Blood [9]) [nM] | Activity (Erythrocyte) [%]
1 | Cc1ccc(C(=O)N2C(=O)/C(=N\C(=S)NCc3cc4ccccc4cc3O)c3ccccc32)cc1 | 24.2 | 65 | 83.1 | Dose-dependent effect | – | – | – | – | – | – | – | –
2 | NCCCC[C@H](N[C@@H](CCc1ccccc1)C(=O)O)C(=O)N1CCC[C@H]1C(=O)O | – | 89.1 | – | – | – | – | – | – | – | – | – | –
3 | COc1ccc(N2C(=O)/C(=N/C(=S)NCc3cc4ccccc4cc3O)c3ccccc32)cc1 | 9.82 | 86.4 | 79.4 | Dose-dependent effect | – | – | – | – | – | – | – | –
4 | COc1cccc2c1C(=O)c1c(O)c3c(c(O)c1C2=O)C[C@@](O)(C(=O)CO)C[C@@H]3O[C@H]1C[C@H](N)[C@H](O)[C@H](C)O1 [DOXORUBICIN] | – | – | – | – | 78.42 | – | – | – | – | – | – | –
5 | CN1C(=O)/C(=N\C(=S)NCc2cc3ccccc3cc2O)c2ccccc21 | 22.3 | 66.5 | 74.1 | Dose-dependent effect | – | inactive | – | – | – | – | – | –
6 | CCCN1C(=O)/C(=N\C(=S)NCc2cc3ccccc3cc2O)c2ccccc21 | 11.8 | 80.7 | 75.1 | Dose-dependent effect | – | – | – | – | – | – | – | –
7 | O=C1/C(=N\C(=S)NCc2cc3ccccc3cc2O)c2ccccc2N1CCBr | 4.11 | 90.5 | 92.5 | Dose-dependent effect | 82.94 | Active | Active | 83.5 | 92 | Non-Toxic | – | –
8 | COc1ccc(CN2C(=O)/C(=N\C(=S)NCc3cc4ccccc4cc3O)c3ccccc32)cc1 | 7.64 | 88.5 | 78 | Dose-dependent effect | – | Active | – | 83.5 | – | – | – | –
9 | O=C1/C(=N\C(=S)NCc2cc3ccccc3cc2O)c2ccccc2N1c1ccccc1Cl | 15.1 | 76.5 | 82.7 | Dose-dependent effect | – | – | – | – | – | – | – | –
10 | O=C1O[C@H]([C@@H](O)CO)C(O)=C1O | – | – | 90.1 | – | – | – | – | – | – | – | – | –
11 | CC(=O)N1C(=O)/C(=N\C(=S)NCc2cc3ccccc3cc2O)c2ccccc21 | 10.7 | 82.7 | 81.2 | Dose-dependent effect | – | Active | – | – | – | – | – | –
12 | O=C1/C(=N\C(=S)NCc2cc3ccccc3cc2O)c2ccccc2N1C(=O)c1ccccc1 | 8.84 | 87.3 | 89.5 | Dose-dependent effect | 78.12 | Active | – | 83.5 | 102 | Non-Toxic | – | –
13 | CC(=O)CN1C(=O)/C(=N\C(=S)NCc2cc3ccccc3cc2O)c2ccccc21 | 112 | 24 | 68.5 | Dose-dependent effect | – | – | – | – | – | – | – | –
14 | O=C1/C(=N\C(=S)NCc2cc3ccccc3cc2O)c2ccccc2N1c1ccccc1 | 19 | 69.2 | 80.8 | Dose-dependent effect | – | – | – | – | – | – | – | –
15 | O=C(O)CN1C(=O)/C(=N\C(=S)NCc2cc3ccccc3cc2O)c2ccccc21 | 2.85 | 96.1 | 98.1 | Dose-dependent effect | 89.02 | Active | Active | 83.5 | 82 | Non-Toxic | 35 | 96
